Laboratory results as given in PMC5218480 (PLoS ONE, 2017).

System: MV-4-11 cells
Test: Gene expression microarray analysis (Affymetrix PrimeView) and GSEA
Type: cell-based, human
Parameters: RFU PODN (11730768_x_at) / Fold change /veh PODN (11730768_x_at) / RFU LINC00158 (11744669_a_at) / Fold change /veh LINC00158 (11744669_a_at) / RFU DUSP10 (11751237_a_at) / Fold change /veh DUSP10 (11751237_a_at) / RFU ID3 (11757404_x_at) / Fold change /veh ID3 (11757404_x_at) / RFU PLEKHG5 (11737974_s_at) / Fold change /veh PLEKHG5 (11737974_s_at) / RFU LRRC4B (11730491_at) / Fold change /veh LRRC4B (11730491_at) / RFU GIMAP4 (11747438_a_at) / Fold change /veh GIMAP4 (11747438_a_at) / RFU KRT8 (11758183_x_at) / Fold change /veh KRT8 (11758183_x_at) / RFU CNN1 (11734310_a_at) / Fold change /veh CNN1 (11734310_a_at) / RFU VPS37D (11726825_at) / Fold change /veh VPS37D (11726825_at) / RFU C10orf10 (11716522_x_at) / Fold change /veh C10orf10 (11716522_x_at) / RFU KIR2DL2 /// KIR2DL4 /// KIR2DL5A /// KIR2DL5B /// KIR2DS1 /// KIR2DS2 /// KIR2DS3 /// KIR2DS4 /// KIR3DL3 /// KIR3DL3 /// KIR3DS1 (11738374_at) / Fold change /veh KIR2DL2 /// KIR2DL4 /// KIR2DL5A /// KIR2DL5B /// KIR2DS1 /// KIR2DS2 /// KIR2DS3 /// KIR2DS4 /// KIR3DL3 /// KIR3DL3 /// KIR3DS1 (11738374_at) / RFU C1QL1 (11718748_at) / Fold change /veh C1QL1 (11718748_at) / RFU TMPRSS4 (11747572_a_at) / Fold change /veh TMPRSS4 (11747572_a_at) / RFU HAMP (11756126_x_at) / Fold change /veh HAMP (11756126_x_at) / RFU RNFT2 (11725882_a_at) / Fold change /veh RNFT2 (11725882_a_at) / RFU NR4A2 (11747474_a_at) / Fold change /veh NR4A2 (11747474_a_at) / RFU ABCC12 (11746883_a_at) / Fold change /veh ABCC12 (11746883_a_at) / RFU TMEM136 (11760407_x_at) / Fold change /veh TMEM136 (11760407_x_at) / RFU CLDN22 /// WWC2 (11732394_at) / Fold change /veh CLDN22 /// WWC2 (11732394_at) / RFU HLA-DPB1 (11760878_x_at) / Fold change /veh HLA-DPB1 (11760878_x_at) / RFU SPINT1 (11716480_a_at) / Fold change /veh SPINT1 (11716480_a_at) / RFU GAP43 (11754022_s_at) / Fold change /veh GAP43 (11754022_s_at) / RFU A4GNT (11735810_at) / Fold change /veh A4GNT (11735810_at) / RFU PRB3 (11715151_x_at) / Fold change /veh PRB3 (11715151_x_at) / RFU TUBB4B (11761932_at) / Fold change /veh TUBB4B (11761932_at) / RFU CAPN14 (11732068_a_at) / Fold change /veh CAPN14 (11732068_a_at) / RFU TMCC2 (11721928_a_at) / Fold change /veh TMCC2 (11721928_a_at) / RFU IRGQ (11745062_a_at) / Fold change /veh IRGQ (11745062_a_at) / RFU FAM174B (11720279_a_at) / Fold change /veh FAM174B (11720279_a_at) / RFU TMPRSS4 (11748680_a_at) / Fold change /veh TMPRSS4 (11748680_a_at) / RFU FAM212B (11763350_a_at) / Fold change /veh FAM212B (11763350_a_at) / RFU PLEKHG5 (11743358_a_at) / Fold change /veh PLEKHG5 (11743358_a_at) / RFU ZSCAN30 (11745921_a_at) / Fold change /veh ZSCAN30 (11745921_a_at) / RFU CMKLR1 (11741424_a_at) / Fold change /veh CMKLR1 (11741424_a_at) / RFU LOC101060620 /// MAPK8IP1 (11723275_at) / Fold change /veh LOC101060620 /// MAPK8IP1 (11723275_at) / RFU SPTSSB (11747773_x_at) / Fold change /veh SPTSSB (11747773_x_at) / RFU PRSS12 (11739890_at) / Fold change /veh PRSS12 (11739890_at) / RFU BIN1 (11741810_x_at) / Fold change /veh BIN1 (11741810_x_at) / RFU WNT11 (11732464_a_at) / Fold change /veh WNT11 (11732464_a_at) / RFU C10orf10 (11716521_a_at) / Fold change /veh C10orf10 (11716521_a_at) / RFU C5orf56 (11738089_at) / Fold change /veh C5orf56 (11738089_at) / RFU CYB561 (11721691_x_at) / Fold change /veh CYB561 (11721691_x_at) / RFU ANKRD19P (11752326_a_at) / Fold change /veh ANKRD19P (11752326_a_at) / RFU OR2T12 /// OR2T33 /// OR2T8 (11738714_s_at) / Fold change /veh OR2T12 /// OR2T33 /// OR2T8 (11738714_s_at) / RFU VCAN (11748164_a_at) / Fold change /veh VCAN (11748164_a_at) / RFU JSRP1 (11732532_at) / Fold change /veh JSRP1 (11732532_at) / RFU KRTAP10-11 (11738290_x_at) / Fold change /veh KRTAP10-11 (11738290_x_at) / RFU MYO3A (11730013_a_at) / Fold change /veh MYO3A (11730013_a_at) / RFU EBF3 (11725865_a_at) / Fold change /veh EBF3 (11725865_a_at) / RFU CAMK2N1 (11719241_x_at) / Fold change /veh CAMK2N1 (11719241_x_at) / RFU C5orf56 (11738088_a_at) / Fold change /veh C5orf56 (11738088_a_at) / RFU OLFML3 (11715873_a_at) / Fold change /veh OLFML3 (11715873_a_at) / RFU LOC100653217 /// NTM (11731650_a_at) / Fold change /veh LOC100653217 /// NTM (11731650_a_at) / RFU MAPK11 (11762145_a_at) / Fold change /veh MAPK11 (11762145_a_at) / RFU FIZ1 (11724087_x_at) / Fold change /veh FIZ1 (11724087_x_at) / RFU OASL (11726364_x_at) / Fold change /veh OASL (11726364_x_at) / RFU SOX15 (11748057_x_at) / Fold change /veh SOX15 (11748057_x_at) / RFU CD79A (11719716_a_at) / Fold change /veh CD79A (11719716_a_at) / RFU HIST1H1D (11736915_at) / Fold change /veh HIST1H1D (11736915_at) / RFU CASKIN2 (11723855_a_at) / Fold change /veh CASKIN2 (11723855_a_at) / RFU LOC730098 (11760151_x_at) / Fold change /veh LOC730098 (11760151_x_at) / RFU OR4N2 (11742367_at) / Fold change /veh OR4N2 (11742367_at) / RFU PRRT2 (11749266_a_at) / Fold change /veh PRRT2 (11749266_a_at) / RFU SNX32 (11753110_a_at) / Fold change /veh SNX32 (11753110_a_at) / RFU CDHR5 (11726645_a_at) / Fold change /veh CDHR5 (11726645_a_at) / RFU RCAN1 (11760418_a_at) / Fold change /veh RCAN1 (11760418_a_at) / RFU FAM167A (11723789_a_at) / Fold change /veh FAM167A (11723789_a_at) / RFU FAM26E (11764081_at) / Fold change /veh FAM26E (11764081_at) / RFU ISYNA1 (11749810_s_at) / Fold change /veh ISYNA1 (11749810_s_at) / RFU ACY1 (11761880_at) / Fold change /veh ACY1 (11761880_at) / RFU 11764098_at / Fold change /veh 11764098_at / RFU SAMD14 (11745864_x_at) / Fold change /veh SAMD14 (11745864_x_at) / RFU NPB (11741838_a_at) / Fold change /veh NPB (11741838_a_at) / RFU TMPRSS6 (11731388_a_at) / Fold change /veh TMPRSS6 (11731388_a_at) / RFU KRTAP10-2 (11738614_at) / Fold change /veh KRTAP10-2 (11738614_at) / RFU ARHGAP8 /// PRR5-ARHGAP8 (11727945_x_at) / Fold change /veh ARHGAP8 /// PRR5-ARHGAP8 (11727945_x_at) / RFU KRTAP5-7 /// NADSYN1 (11734609_at) / Fold change /veh KRTAP5-7 /// NADSYN1 (11734609_at) / RFU RASL12 (11751679_a_at) / Fold change /veh RASL12 (11751679_a_at) / RFU CDKN2B (11736163_a_at) / Fold change /veh CDKN2B (11736163_a_at) / RFU PRF1 (11729649_at) / Fold change /veh PRF1 (11729649_at) / RFU, ZNF638 /// ZNF638-IT1 / Fold change vs veh, ZNF638 /// ZNF638-IT1 / RFU, PANK3 / Fold change vs veh, PANK3 / RFU, SH3YL1 / Fold change vs veh, SH3YL1 / RFU, ZEB2 / Fold change vs veh, ZEB2 / RFU, NRIP1 / Fold change vs veh, NRIP1 / RFU, PTTG1IP / Fold change vs veh, PTTG1IP / RFU, CAPN2 / Fold change vs veh, CAPN2 / RFU, MED14 / Fold change vs veh, MED14 / RFU, SNORA58 / Fold change vs veh, SNORA58 / RFU, C1orf63 / Fold change vs veh, C1orf63 / RFU, LRRFIP1 / Fold change vs veh, LRRFIP1 / RFU, NDUFAF7 / Fold change vs veh, NDUFAF7 / RFU, SLC12A2 / Fold change vs veh, SLC12A2 / RFU, IBTK / Fold change vs veh, IBTK / RFU, ESF1 / Fold change vs veh, ESF1 / Fold change vs veh, TMEM50B / RFU, TAOK1 / Fold change vs veh, TAOK1 / RFU, ACBD3 / Fold change vs veh, ACBD3 / RFU, TMA16 / Fold change vs veh, TMA16 / RFU, RWDD3 / Fold change vs veh, RWDD3 / RFU, BCAT1 / Fold change vs veh, BCAT1 / RFU, EDEM3 / Fold change vs veh, EDEM3 / RFU, TMEM33 / Fold change vs veh, TMEM33 / RFU, WDR75 / Fold change vs veh, WDR75 / RFU, AHCTF1 / Fold change vs veh, AHCTF1 / RFU, TFRC / Fold change vs veh, TFRC / RFU, ZDHHC17 / Fold change vs veh, ZDHHC17 / RFU, NOM1 / Fold change vs veh, NOM1 / RFU, ARL8B / Fold change vs veh, ARL8B / RFU, ZBTB11 / Fold change vs veh, ZBTB11 / RFU, TAMM41 / Fold change vs veh, TAMM41 / RFU, KIAA1704 /// LOC100996395 / Fold change vs veh, KIAA1704 /// LOC100996395 / RFU, ING1 / Fold change vs veh, ING1 / RFU, TRMT61B / Fold change vs veh, TRMT61B / RFU, FUBP3 / Fold change vs veh, FUBP3 / RFU, TP53 / Fold change vs veh, TP53 / RFU, TNKS2 / Fold change vs veh, TNKS2 / RFU, ZFP14 / Fold change vs veh, ZFP14 / RFU, ACTR2 / Fold change vs veh, ACTR2 / RFU, PPP3R1 / Fold change vs veh, PPP3R1 / RFU, PIK3R1 / Fold change vs veh, PIK3R1 / RFU, HNRNPA1 / Fold change vs veh, HNRNPA1 / RFU, RNF170 / Fold change vs veh, RNF170 / RFU, ZNF28 / Fold change vs veh, ZNF28 / RFU, RNGTT / Fold change vs veh, RNGTT / RFU, OGT / Fold change vs veh, OGT / RFU, BRD1 / Fold change vs veh, BRD1 / RFU, MARS / Fold change vs veh, MARS / RFU, ZNF655 / Fold change vs veh, ZNF655 / RFU, FAHD1 / Fold change vs veh, FAHD1 / RFU, BDP1 / Fold change vs veh, BDP1 / RFU, LRRCC1 / Fold change vs veh, LRRCC1 / RFU, ARID1A / Fold change vs veh, ARID1A / RFU, ZNF146 / Fold change vs veh, ZNF146 / RFU, ZNF330 / Fold change vs veh, ZNF330 / RFU, GPN3 / Fold change vs veh, GPN3 / RFU, C9orf123 / Fold change vs veh, C9orf123 / RFU, N4BP2L2 / Fold change vs veh, N4BP2L2 / RFU, ARFIP1 / Fold change vs veh, ARFIP1 / RFU, FAM179B / Fold change vs veh, FAM179B / RFU, BCL10 / Fold change vs veh, BCL10 / RFU, UHRF1BP1L / Fold change vs veh, UHRF1BP1L / RFU, BET1 / Fold change vs veh, BET1 / RFU, CNOT2 / Fold change vs veh, CNOT2 / RFU, ZNF268 / Fold change vs veh, ZNF268 / Fold change vs veh, ZNF507 / RFU, DGCR2 / Fold change vs veh, DGCR2 / RFU, WDSUB1 / Fold change vs veh, WDSUB1 / Fold change vs veh, HSP90B1 /// MIR3652 / RFU, ADSS / Fold change vs veh, ADSS / RFU, GK / Fold change vs veh, GK / RFU, ZNF148 / Fold change vs veh, ZNF148 / RFU, TAF9 / Fold change vs veh, TAF9 / RFU, SLC1A5 / Fold change vs veh, SLC1A5 / RFU, SLMO2 / Fold change vs veh, SLMO2 / RFU, ABCC4 / Fold change vs veh, ABCC4 / RFU, LOC101060439 /// RAP1B / Fold change vs veh, LOC101060439 /// RAP1B / RFU, RFX7 / Fold change vs veh, RFX7 / RFU, GTPBP10 / Fold change vs veh, GTPBP10 / RFU, CNEP1R1 / Fold change vs veh, CNEP1R1 / RFU, BIVM-ERCC5 /// ERCC5 / Fold change vs veh, BIVM-ERCC5 /// ERCC5 / RFU, ILF3 / Fold change vs veh, ILF3 / RFU 11762660_at / Fold change /veh 11762660_at / RFU VCAN (11757783_s_at) / Fold change /veh VCAN (11757783_s_at) / RFU DDX43 (11728927_at) / Fold change /veh DDX43 (11728927_at) / RFU KRT8 (11758188_x_at) / Fold change /veh KRT8 (11758188_x_at) / RFU NKD1 (11759106_at) / Fold change /veh NKD1 (11759106_at) / RFU SRD5A1 (11742802_a_at) / Fold change /veh SRD5A1 (11742802_a_at) / RFU TPSAB1 /// TPSB2 (11721975_s_at) / Fold change /veh TPSAB1 /// TPSB2 (11721975_s_at) / RFU GSTM3 (11746129_a_at) / Fold change /veh GSTM3 (11746129_a_at) / RFU IL23R (11737362_x_at) / Fold change /veh IL23R (11737362_x_at) / RFU TMEM51 (11727254_a_at) / Fold change /veh TMEM51 (11727254_a_at) / RFU PIWIL2 (11732686_x_at) / Fold change /veh PIWIL2 (11732686_x_at) / RFU ORM1 (11744905_x_at) / Fold change /veh ORM1 (11744905_x_at) / RFU CCDC152 (11743942_at) / Fold change /veh CCDC152 (11743942_at) / RFU ECM1 (11717891_a_at) / Fold change /veh ECM1 (11717891_a_at) / RFU IL23R (11748794_a_at) / Fold change /veh IL23R (11748794_a_at) / RFU TNFAIP8L3 (11732012_x_at) / Fold change /veh TNFAIP8L3 (11732012_x_at) / RFU MBOAT4 (11741988_at) / Fold change /veh MBOAT4 (11741988_at) / RFU 11764193_at / Fold change /veh 11764193_at / RFU TMEM53 (11763286_at) / Fold change /veh TMEM53 (11763286_at) / RFU MAGEB2 (11727129_at) / Fold change /veh MAGEB2 (11727129_at) / RFU TMEM200A (11744735_a_at) / Fold change /veh TMEM200A (11744735_a_at) / RFU CCDC152 (11751479_a_at) / Fold change /veh CCDC152 (11751479_a_at) / RFU FAM211A (11726209_a_at) / Fold change /veh FAM211A (11726209_a_at) / RFU RGS16 (11746705_a_at) / Fold change /veh RGS16 (11746705_a_at) / RFU VCAN (11755009_s_at) / Fold change /veh VCAN (11755009_s_at) / RFU RHOB (11743442_s_at) / Fold change /veh RHOB (11743442_s_at) / RFU RGS16 (11720943_a_at) / Fold change /veh RGS16 (11720943_a_at) / RFU RGS16 (11720944_at) / Fold change /veh RGS16 (11720944_at) / RFU, VPS4B / Fold change vs veh, VPS4B / RFU, CREB1 / Fold change vs veh, CREB1 / RFU, DNAJC13 / Fold change vs veh, DNAJC13 / RFU, GNAQ / Fold change vs veh, GNAQ / RFU, CDK5R1 / Fold change vs veh, CDK5R1 / RFU, ZRANB3 / Fold change vs veh, ZRANB3 / RFU, CUL4A / Fold change vs veh, CUL4A / RFU, CCNY / Fold change vs veh, CCNY / RFU, UFL1 / Fold change vs veh, UFL1 / RFU, COG3 / Fold change vs veh, COG3 / RFU, DIAPH2 / Fold change vs veh, DIAPH2 / RFU, SKA2 / Fold change vs veh, SKA2 / RFU, AFF3 / Fold change vs veh, AFF3 / RFU, LMF1 / Fold change vs veh, LMF1 / RFU, IPO11 / Fold change vs veh, IPO11 / RFU, DFFB / Fold change vs veh, DFFB / RFU, FOXP1 / Fold change vs veh, FOXP1 / RFU, CARD8 / Fold change vs veh, CARD8 / RFU, STRN3 / Fold change vs veh, STRN3 / RFU, ADK / Fold change vs veh, ADK / RFU, RASSF2 / Fold change vs veh, RASSF2 / RFU, WIPF1 / Fold change vs veh, WIPF1 / RFU, LARP1B / Fold change vs veh, LARP1B / RFU, RASA1 / Fold change vs veh, RASA1 / RFU, RB1 / Fold change vs veh, RB1 / RFU, PPFIA1 / Fold change vs veh, PPFIA1 / RFU, MAT2A / Fold change vs veh, MAT2A / RFU, CCT5 / Fold change vs veh, CCT5 / RFU, WDR92 / Fold change vs veh, WDR92 / RFU, CUX1 / Fold change vs veh, CUX1 / RFU, TTC7A / Fold change vs veh, TTC7A / RFU, TMEM135 / Fold change vs veh, TMEM135 / RFU, DEPTOR / Fold change vs veh, DEPTOR / RFU, CPM / Fold change vs veh, CPM / RFU, DNAJB6 / Fold change vs veh, DNAJB6 / RFU, CACNA2D3 / Fold change vs veh, CACNA2D3 / RFU, DTX4 / Fold change vs veh, DTX4 / RFU, TFCP2 / Fold change vs veh, TFCP2 / RFU, GMCL1 /// GMCL1P1 / Fold change vs veh, GMCL1 /// GMCL1P1 / RFU, AEBP2 / Fold change vs veh, AEBP2 / RFU, SNHG1 /// SNORD22 /// SNORD25 /// SNORD26 /// SNORD27 /// SNORD28 /// SNORD29 /// SNORD31 / Fold change vs veh, SNHG1 /// SNORD22 /// SNORD25 /// SNORD26 /// SNORD27 /// SNORD28 /// SNORD29 /// SNORD31 / Fold change (Aza/veh), C12orf56 (ProbeSet 11735607_a_at) / Fold change (ACY-1035/veh), C12orf56 (ProbeSet 11735607_a_at) / Fold change (Aza/veh), FGFR1OP (ProbeSet 11751329_s_at) / Fold change (ACY-1035/veh), FGFR1OP (ProbeSet 11751329_s_at) / Fold change (Aza/veh), VPS36 (ProbeSet 11739960_a_at) / Fold change (ACY-1035/veh), VPS36 (ProbeSet 11739960_a_at) / RFU SYPL1 (11715823_x_at) / Fold change /veh SYPL1 (11715823_x_at) / RFU IGFBP7 (11715501_s_at) / Fold change /veh IGFBP7 (11715501_s_at) / RFU REEP3 (11722064_at) / Fold change /veh REEP3 (11722064_at) / RFU IGLL1 (11728026_x_at) / Fold change /veh IGLL1 (11728026_x_at): dose or concentration left out as unconfirmed
Details: MV-4-11 cells, 48 hours

Nc1ccc(-c2cccs2)cc1NC(=O)c1ccc2c(c1)cc(C1CC1)n2CCN1CCOCC1 [ACY-1035]
RFU PRB3 (11715151_x_at): 8.09 RFU
